Activity calls are given as the source filed them. The rule behind the calls is not given here.
Columns and labels:
[1] = Selectivity index, ratio of cytotoxic concentration for human MRC5 cells to IC50 for chloroquine-resistant Plasmodium falciparum K1 infected in human erythrocytes
[2] = test system: Plasmodium falciparum; assay: Antiplasmodial activity against chloroquine-sensitive Plasmodium falciparum FCR-3 infected in human erythrocytes measured after 72 hrs by malstat reagent based LDH release assay; assay type: functional, organism-based; conditions: FCR-3/Gambia
[3] = test system: Plasmodium falciparum; assay: Antiplasmodial activity against chloroquine-resistant Plasmodium falciparum K1 infected in human erythrocytes measured after 72 hrs by malstat reagent based LDH release assay; assay type: functional, organism-based; conditions: K1, 72 h
[4] = test system: Plasmodium berghei; assay: Antimalarial activity against Plasmodium berghei N infected in mouse assessed as inhibition of parasitemia at 15 mg/kg, po once daily for 4 consecutive days starting from 2 hrs post infection measured on day 4 post last dose relative to control; assay type: functional
[5] = test system: Plasmodium berghei; assay: Antimalarial activity against Plasmodium berghei N infected in mouse assessed as mouse survival at 15 mg/kg, po once daily for 4 consecutive days starting from 2 hrs post infection relative to control; assay type: functional
[6] = Binding affinity to hemin at pH 5.2 by ITC
[7] = Inhibition of Plasmodium falciparum FCR-3 HDP expressed in Escherichia coli assessed as reduction in hemazoin formation; design: species or system Plasmodium falciparum FCR-3/Gambia
[8] = test system: Plasmodium berghei; assay: animal or person; assay type: functional; conditions: N, in Mus musculus, po
[9] = test system: Plasmodium berghei; assay: animal or person; assay type: functional; conditions: N, in Mus musculus, sc
[10] = test system: Plasmodium berghei; assay: Antimalarial activity against Plasmodium berghei N infected in mouse assessed as mouse survival at 30 mg/kg, sc once daily for 4 consecutive days starting from 2 hrs post infection relative to control; assay type: functional
[11] = test system: Plasmodium berghei; assay: Antimalarial activity against Plasmodium berghei N infected in mouse assessed as mouse survival at 30 mg/kg, po once daily for 4 consecutive days starting from 2 hrs post infection relative to control; assay type: functional

Work on `CN(CCNc1ccc2ccccc2n1)CCNc1ccnc2cc(Cl)ccc12` yielded a selectivity ratio [1] of 36, an IC50 [2] of 29 nM and an IC50 [3] of 370 nM.
`CN(CCNc1ccccn1)CCNc1ccnc2cc(Cl)ccc12` showed a selectivity ratio [1] of 430, an IC50 [2] of 510 nM and an IC50 [3] of 1100 nM.
Compound `C[C@H]1[C@H](OC(=O)CCC(=O)O)O[C@@H]2O[C@@]3(C)CC[C@H]4[C@H](C)CC[C@@H]1[C@@]24OO3` [ARTESUNATE] has an inhibition in vivo at 15 mg/kg [4] of 95.2% and a survival at 15 mg/kg [5] of 103%.
In the case of `CN(CCCNc1ccnc2cc(Cl)ccc12)CCCNc1ccnc2cc(Cl)ccc12`, the selectivity ratio [1] is reported as 66, the IC50 [2] is reported as 97 nM and the IC50 [3] is reported as 21 nM.
With `CCN(CC)CCCC(C)Nc1ccnc2cc(Cl)ccc12` (stereo unspecified) [CHLOROQUINE] the Activity [6] was “Active” and the IC50 [7] was 46 nM.
Work on `CN(CCNc1nccc2ccccc12)CCNc1ccnc2cc(Cl)ccc12` yielded a selectivity ratio [1] of 36, an IC50 [2] of 24 nM and an IC50 [3] of 270 nM.
With `CN(CCNc1ccc2ccccc2n1)CCNc1ccc2ccccc2n1` the selectivity ratio [1] was 17, the IC50 [2] was 21000 nM and the IC50 [3] was 18000 nM.
`CN(CCCNC(=O)C=Cc1ccc2ccccc2c1)CCCNc1ccnc2cc(Cl)ccc12` showed a selectivity ratio [1] of 140, an IC50 [2] of 4.9 nM and an IC50 [3] of 10 nM.
`CN(CCNc1nc2ccccc2[nH]1)CCNc1ccnc2cc(Cl)ccc12` showed a selectivity ratio [1] of 8.5, an IC50 [2] of 230 nM and an IC50 [3] of 3100 nM.
In the case of `CN(CCCNc1ccc2ccccc2n1)CCCNc1ccnc2cc(Cl)ccc12`, the selectivity ratio [1] is reported as 61, the Activity [6] is reported as “Active” and the IC50 [2] is reported as 0.92 nM. It also gave an IC50 [7] of 0.92 nM and an IC50 [3] of 37 nM.
Work on `CN(CCNC(=O)C=Cc1cnc[nH]1)CCNc1ccnc2cc(Cl)ccc12` yielded a selectivity ratio [1] greater than 14, an IC50 [2] of 750 nM and an IC50 [3] of 18000 nM.
For `CN(CCNC(=O)C=Cc1ccc2ccccc2n1)CCNc1ccnc2cc(Cl)ccc12`, the selectivity ratio [1] was 6, the IC50 [2] was 76 nM and the IC50 [3] was 870 nM.
With `CN(CCNC(=O)C=Cc1ccc2ccccc2c1)CCNc1ccnc2cc(Cl)ccc12` the selectivity ratio [1] was 1200, the Activity [6] was “Active” and the inhibition in vivo at 30 mg/kg [8] was 23.5%. The IC50 [2] was 12 nM, the inhibition in vivo at 30 mg/kg [9] was 100% and the IC50 [7] was 12 nM. For the same compound, the survival at 30 mg/kg [10] was 223%, the IC50 [3] was 28 nM and the survival at 30 mg/kg [11] was 100%.
With `CN(CCNc1nc2ccccc2[nH]1)CCNc1nc2ccccc2[nH]1` the selectivity ratio [1] was 4.7, the IC50 [2] was 17300 nM and the IC50 [3] was 19000 nM.
For `CN(CCNc1ncccn1)CCNc1ccnc2cc(Cl)ccc12`, the selectivity ratio [1] was 40, the IC50 [2] was 210 nM and the IC50 [3] was 750 nM.
